Experimental data published in US20140044814A1, “Composition and Methods for Permanent Hair Removal” (priority 2012, published 2014).

Test: Sea salt added to the turmeric mixture, folliculitis after treatment
Format: in vivo
Excerpt: It is believed that the sea salt help to open or penetrate the cellular wall. […] It is believed that the sea salt should be between about 1-10 parts of the turmeric mixture, with the remaining 90-99 parts being turmeric and milk/clay/etc. A presently preferred range is about 1-2 parts sea salt to about […] turmeric mixture.

- folliculitis after treatment: appears to help to minimize folliculitis
Substance: sea salt
